The results in this text go back to ChEMBL document CHEMBL1148886, “Synthesis and antibacterial activity of 3-keto-6-O-carbamoyl-11,12-cyclic thiocarbamate erythromycin A derivatives” (2007).

≈ marks a conversion by molar mass, not a printed value.

Holding throughout (format): functional
The test system of assay [1] is Streptococcus pneumoniae. Description: Antibacterial activity against erythromycin-susceptible Streptococcus pneumoniae OC9132 by broth microdilution method.
Another assay relates to Haemophilus influenzae. Description: Antibacterial activity against Haemophilus influenzae OC4882 by broth microdilution method.
Another assay has as its system Staphylococcus aureus. Put plainly: Antibacterial activity against erythromycin-susceptible Staphylococcus aureus OC4172 by broth microdilution method.
The subject of assay [2] is Streptococcus pneumoniae. Put plainly: Antibacterial activity against erythromycin-resistant Streptococcus pneumoniae OC4051 containing erm(B) by broth microdilution method.
For assay [3], the system named is Streptococcus pneumoniae. Put plainly: Antibacterial activity against erythromycin-resistant Streptococcus pneumoniae OC4438 containing mef(A) by broth microdilution method.

In the case of `CC[C@H]1OC(=O)[C@H](C)C(=O)[C@H](C)[C@@H](O[C@@H]2O[C@H](C)C[C@H](N(C)C)[C@H]2O)[C@](C)(OC(N)=O)C[C@@H](C)C(=O)[C@H](C)[C@@H]2NC(=S)O[C@]12C`, the MIC with Streptococcus pneumoniae [1] turned out to be 0.25 µg/mL (≈ 0.38 µM); in the assay with Haemophilus influenzae, 8 µg/mL (≈ 12.2 µM); in the assay with Staphylococcus aureus it was 4 µg/mL (≈ 6.08 µM).

Take `CC[C@H]1OC(=O)[C@H](C)[C@@H](O[C@H]2C[C@@](C)(OC)[C@@H](O)[C@H](C)O2)[C@H](C)[C@@H](O[C@@H]2O[C@H](C)C[C@H](N(C)C)[C@H]2O)[C@](C)(O)C[C@@H](C)C(=O)[C@H](C)[C@@H](O)[C@]1(C)O` [ERYTHROMYCIN]: the MIC against Streptococcus pneumoniae [2] is over 16 µg/mL; in the assay with Streptococcus pneumoniae [1], 0.06 µg/mL (≈ 0.0818 µM); in the assay with Streptococcus pneumoniae [3] it was 4 µg/mL (≈ 5.45 µM); against Haemophilus influenzae, 8 µg/mL (≈ 10.9 µM); in the assay with Staphylococcus aureus it was 0.5 µg/mL (≈ 0.681 µM).

For the compound `CC[C@H]1OC(=O)[C@H](C)C(=O)[C@H](C)[C@@H](O[C@@H]2O[C@H](C)C[C@H](N(C)C)[C@H]2O)[C@](C)(OC)C[C@@H](C)C(=O)[C@H](C)[C@H]2N(CCCCn3cnc(-c4cccnc4)c3)C(=O)O[C@]12C` [TELITHROMYCIN], the MIC in the assay on Streptococcus pneumoniae [2] turned out to be 0.06 µg/mL (≈ 0.0739 µM); with Streptococcus pneumoniae [1] it was 0.03 µg/mL (≈ 0.0369 µM); against Streptococcus pneumoniae [3] it was 0.25 µg/mL (≈ 0.308 µM); in the assay on Haemophilus influenzae it was 2 µg/mL (≈ 2.46 µM); against Staphylococcus aureus, 0.25 µg/mL (≈ 0.308 µM).
